Measurements from US20250137054A1, “COMPOSITION AND METHOD FOR EVALUATING RESPONSIVENESS OF EDARAVONE” (MITSUBISHI TANABE PHARMA CORPORATION, priority 2022, published 2025).

Key:
[1] = test system: disease model cells (neurons derived from the 1464R cell line forcibly expressing wild-type and mutant TDP-43); assay: Evaluation of cell protection using chromogenic substrate (Cell Counting Kit-8), with EA; format: cell-based, rat; conditions: Eda 1-200 μmol/L 24 h, then EA 20 μmol/L 24 h; vs Comparative Example 1 (FIG. 3)
Protocol: Using both vectors (a) and (b), the differentiated cell line in the infection medium was infected with adenovirus at a multiplicity of infection of 50, and cultured for 24 hours. As a result, neurons derived from the 1464R cell line, in which both wild-type and mutant TDP-43 were forcibly expressed intracellularly (hereinafter, also referred to as disease model cells), were obtained.
After that, a cell toxicity measurement kit (Cell Counting Kit-8, manufactured by DOJINDO) was used to expose the cells in each group according to a product protocol, and an amount of chromogenic substrate produced was measured by absorbance at 450 nm.
With this kit, the more viable cells present, the more chromogenic substrate is produced, resulting in a higher absorbance value at 450 nm. Therefore, a higher absorbance at 450 nm indicates a greater number of viable cells.
The data shown in FIG. 3 are all expressed as mean±standard error of the mean (SEM, n=4 for each). In FIG. 3, the symbol “##” indicates a statistically significant difference of p<0.01 compared to Comparative Example 1 (determined by Student t-test). In FIG. 3, the symbol “*” indicates a statistically significant difference of p<0.05 compared to Comparative Example 1, and the symbol “**” indicates a statistically significant difference of p<0.01 compared to Comparative Example 1 (both determined by Williams' multiple comparison test).

[2] = test system: differentiated 1464R cell line (no forced TDP-43 expression); assay: RNA-seq gene expression analysis in differentiated cell line without TDP-43; format: cell-based, rat; conditions: Group 2 (Eda 50 μmol/L 48 h) vs Group 1 (control)
Protocol: Next, using a differentiation medium shown below, the 1464R cell line was cultured in an adherent state on a poly-L-lysine treated dish. Culture conditions for cell differentiation were 37° C., 5% CO2, and 4 days. Through this process, the 1464R cell line was differentiated into neuronal cells (neurons). Further, the 1464R cell line partly differentiated into glial cells. In the following description, the differentiated 1464R cell line is also collectively referred to as the “differentiated cell line.” […]
Next, using the NovaSeq6000 system (NovaSeq6000 S4 reagent kit, NovaSeq Xp4 lane kit, and NovaSeq control software (version 1.6.0); all manufactured by Illumina), sequences of the cDNA library were determined according to a product protocol. […]
An RNA expression level (TPM) of a transcription product i measured from the cDNA library of the experimental groups was calculated based on alignment to the rat genome and transcription product annotation from the Ensembl database, according to the following equation (A).
Differential expression analysis was performed using DESeq2 (a package for two-group comparison) in the statistical analysis software R (version 3.6.0) to calculate a log 2 ratio of RNA expression levels and a significance test. The log 2 ratio is a value expressed as “log 2 ([expression level of a first measurement target]/[expression level of a second measurement target]).” […]

CC1=NN(c2ccccc2)C(=O)C1 [edaravone, 5-methyl-2-phenyl-2,4-dihydro-3H-pyrazol-3-one]
absorbance at 450 nm (number of viable cells) [1]: increased in an Eda concentration-dependent manner
number of downregulated genes (DEGs) [2]: 0/0
number of upregulated genes (DEGs) [2]: 0/0
